Test results: patent publication US11311522B1 (Cavion, Inc., priority 2018, dated 2022)

Columns and labels:
[1] = biological target: human peroxisome proliferator-activated receptor gamma (PPARγ) (Homo sapiens, UniProt P37231); experiment: PPARγ binding
[2] = system: patients with essential tremor; experiment: T-CALM: Patient Global Impression of Change (PGIC); assay type: in vivo, human; settings: for PGIC (rescaled −3 to 3), LS mean (SE) / PGIC, LS mean difference from placebo (95% CI): ANCOVA; for 0 - no change / 1 - minimally improved / 2 - much improved / 3 - very much improved / −1 - minimally worse / −2 - much worse / −3 - very much worse: PGIC
Text: Treatment success as measured by PGIC was summarized using descriptive statistics.

[3] = Exploratory embryofetal development study in rats
[4] = Exploratory embryofetal development study in rabbits
slow wave activity = experiment: PN003: polysomnogram, slow wave activity; assay type: in vivo, human; settings: 12 mg single dose, 24 subjects, Study PN003
Method: A washout period of at least 2 weeks separated the treatment periods. […] The PSG recordings were initiated at each subject's habitual bedtime and continued for 8 hours.

hERG = biological target: T1, hERG (Homo sapiens, UniProt Q12809); experiment: hERG whole-cell voltage-clamp (CHO-K1 cells); assay type: cell-based; settings: hERG current
T1 construct: expressed in transfected cells; host or cells: CHO-K1
T1 sequence (Q12809 whole entry): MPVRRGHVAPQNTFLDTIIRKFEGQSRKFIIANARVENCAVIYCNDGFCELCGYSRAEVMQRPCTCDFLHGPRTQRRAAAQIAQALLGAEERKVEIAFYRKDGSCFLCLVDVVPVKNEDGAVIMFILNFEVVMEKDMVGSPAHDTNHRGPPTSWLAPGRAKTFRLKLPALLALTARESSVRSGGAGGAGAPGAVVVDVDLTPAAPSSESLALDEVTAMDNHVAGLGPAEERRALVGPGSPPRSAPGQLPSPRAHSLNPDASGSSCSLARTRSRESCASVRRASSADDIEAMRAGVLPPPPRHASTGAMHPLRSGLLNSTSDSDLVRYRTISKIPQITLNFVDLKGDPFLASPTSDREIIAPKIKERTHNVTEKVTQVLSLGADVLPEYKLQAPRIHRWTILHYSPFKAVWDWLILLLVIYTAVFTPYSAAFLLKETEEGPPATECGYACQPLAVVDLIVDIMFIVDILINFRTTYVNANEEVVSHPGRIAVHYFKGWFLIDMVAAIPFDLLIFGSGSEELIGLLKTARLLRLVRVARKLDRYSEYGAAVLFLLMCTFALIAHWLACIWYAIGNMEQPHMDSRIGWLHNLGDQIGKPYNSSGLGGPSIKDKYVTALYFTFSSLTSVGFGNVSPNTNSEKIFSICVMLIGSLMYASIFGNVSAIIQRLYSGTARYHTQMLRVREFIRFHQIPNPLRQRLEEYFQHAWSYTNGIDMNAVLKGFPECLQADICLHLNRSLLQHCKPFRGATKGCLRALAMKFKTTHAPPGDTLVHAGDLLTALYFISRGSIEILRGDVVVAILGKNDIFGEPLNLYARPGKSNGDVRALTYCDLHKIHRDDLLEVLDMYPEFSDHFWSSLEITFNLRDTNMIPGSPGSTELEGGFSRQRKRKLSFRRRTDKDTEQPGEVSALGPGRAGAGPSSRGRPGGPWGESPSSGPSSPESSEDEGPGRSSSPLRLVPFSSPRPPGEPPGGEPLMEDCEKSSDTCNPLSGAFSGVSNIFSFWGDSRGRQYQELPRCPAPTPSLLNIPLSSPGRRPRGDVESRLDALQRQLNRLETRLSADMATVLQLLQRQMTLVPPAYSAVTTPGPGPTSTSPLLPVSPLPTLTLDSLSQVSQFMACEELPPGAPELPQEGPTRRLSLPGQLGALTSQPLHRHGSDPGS

[5] = rat, in vivo, 300 mg/kg/day
[6] = Excretion of 14C-labeled CX-8998 in rats; assay type: in vivo, rat; settings: 20 mg/kg oral
Text: Glucuronide conjugates of the oxygenated metabolites are detected in human, monkey, and dog hepatocyte preparations. […] However, the abundance of CYP3A5, CYP2C19, and CYP2D6 in human liver microsomes is low (2%-5%) relative to the primary contributors, CYP3A4 (˜30%) and CYP2C9 (˜20%). […] Information on reproductive and developmental toxicology was obtained in a 28-day pivotal female fertility study in rats and in preliminary embryo-fetal development studies in rats and rabbits.

[7] = MR2 capsules fed versus fasted PK; assay type: in vivo; settings: human, plasma, oral, 8 mg, single dose (1×8 mg) of MR2 CX-8998
Text: Subjects will be screened for study eligibility within 28 days before administration of the first dose of study drug. Subjects who meet the study eligibility criteria will be admitted to the clinical research unit in the afternoon of the day before administration of the first dose of study drug (Period 1/Day −1).

cardiovascular function = experiment: Cardiovascular telemetry in conscious dogs, oral
[8] = Cardiovascular telemetry in conscious dogs, oral; settings: dog
respiratory function = experiment: Respiratory function, whole body plethysmography; settings: female, rat, in vivo
[9] = Respiratory function, whole body plethysmography; settings: female, rat; for Cmax: plasma, po
in vivo = settings: female, rat, po
[10] = Sprague-Dawley rat, oral gavage GD 6 through GD 20
[11] = Dutch Belted rabbit, oral gavage GD 7 through GD 20

human peroxisome proliferator-activated receptor gamma (PPARγ), sequence (P37231 whole entry): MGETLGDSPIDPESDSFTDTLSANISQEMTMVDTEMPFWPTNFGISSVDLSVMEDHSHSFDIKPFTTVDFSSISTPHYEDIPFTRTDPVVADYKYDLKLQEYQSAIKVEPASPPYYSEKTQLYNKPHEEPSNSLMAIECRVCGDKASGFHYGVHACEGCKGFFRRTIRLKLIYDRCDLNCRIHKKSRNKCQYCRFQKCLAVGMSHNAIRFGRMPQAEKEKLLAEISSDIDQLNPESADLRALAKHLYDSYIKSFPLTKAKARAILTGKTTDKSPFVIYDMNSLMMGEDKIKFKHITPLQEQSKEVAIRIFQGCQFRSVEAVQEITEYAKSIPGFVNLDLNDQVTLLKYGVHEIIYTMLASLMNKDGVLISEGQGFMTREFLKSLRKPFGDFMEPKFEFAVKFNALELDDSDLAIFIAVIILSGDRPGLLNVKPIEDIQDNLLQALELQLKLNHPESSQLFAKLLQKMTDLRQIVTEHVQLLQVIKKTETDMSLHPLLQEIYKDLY

C=C(C)c1ccc(CC(=O)N[C@H](C)c2ccc(OCC(F)(F)F)cn2)cc1 [M01]
inhibition at 10 µM [1]: 54%

CC(C)c1ccc(CC(=O)N[C@H](C)c2ccc(OCC(F)(F)F)cn2)cc1 [CX-8998]
PGIC Improved, percent ([2]; Day 15): 66.67% | PGIC No Change, number ([2]; Day 15): 11 | PGIC No Change, percent ([2]; Day 15): 28.2% | PGIC Worsened, number ([2]; Day 15): 2 | PGIC Worsened, percent ([2]; Day 15): 5.12% | PGIC (rescaled −3 to 3), Mean (SD) ([2]; Day 15, N = 39): 1 (1.0) | PGIC (rescaled −3 to 3), Median (minimum, maximum) ([2]; Day 15, N = 39): 1 (−2, 3) | PGIC Category 0 No change, patients n (%) ([2]; Day 15, N = 39): 11 (28%) | PGIC Category 1 Minimally improved, patients n (%) ([2]; Day 15, N = 39): 17 (44%) | PGIC Category 2 Much improved, patients n (%) ([2]; Day 15, N = 39): 8 (21%) | PGIC Category 3 Very much improved, patients n (%) ([2]; Day 15, N = 39): 1 (3%) | PGIC Category −1 Minimally worse, patients n (%) ([2]; Day 15, N = 39): 1 (3%) | PGIC Category −2 Much worse, patients n (%) ([2]; Day 15, N = 39): 1 (3%) | PGIC Category −3 Very much worse, patients n (%) ([2]; Day 15, N = 39): 0 | PGIC (rescaled −3 to 3), LS mean (SE) ([2]; Day 15): 0.9 (0.17) | PGIC, LS mean difference from placebo (95% CI) ([2]; Day 15): 0.7 (0.2, 1.1) | PGIC Improved, number ([2]; Day 28): 20 | PGIC Improved, percent ([2]; Day 28): 54.05% | PGIC No Change, number ([2]; Day 28): 14 | PGIC No Change, percent ([2]; Day 28): 37.84% | PGIC Worsened, number ([2]; Day 28): 3 | PGIC Worsened, percent ([2]; Day 28): 8.11% | PGIC Category 0 No change, patients n (%) ([2]; Day 28, N = 39): 14 (36%) | PGIC Category 1 Minimally improved, patients n (%) ([2]; Day 28, N = 39): 10 (26%) | PGIC Category 2 Much improved, patients n (%) ([2]; Day 28, N = 39): 7 (18%) | PGIC Category 3 Very much improved, patients n (%) ([2]; Day 28, N = 39): 3 (8%) | PGIC Category −1 Minimally worse, patients n (%) ([2]; Day 28, N = 39): 1 (3%) | PGIC Category −2 Much worse, patients n (%) ([2]; Day 28, N = 39): 1 (3%) | PGIC Category −3 Very much worse, patients n (%) ([2]; Day 28, N = 39): 1 (3%) | PGIC (rescaled −3 to 3), Mean (SD) ([2]; Day 28, N=37): 1 (1.3) | PGIC (rescaled −3 to 3), Median (minimum, maximum) ([2]; Day 28, N=37): 1 (−3, 3) | PGIC (rescaled −3 to 3), LS mean (SE) ([2]; Day 28): 0.8 (0.19) | PGIC, LS mean difference from placebo (95% CI) ([2]; Day 28): 0.4 (−0.1, 0.9) | 0 - no change ([2]; Day 15): 11 (28%) n (%) | 1 - minimally improved ([2]; Day 15): 17 (44%) n (%) | 2 - much improved ([2]; Day 15): 8 (21%) n (%) | 3 - very much improved ([2]; Day 15): 1 (3%) n (%) | −1 - minimally worse ([2]; Day 15): 1 (3%) n (%) | −2 - much worse ([2]; Day 15): 1 (3%) n (%) | −3 - very much worse ([2]; Day 15): 0 n (%) | 0 - no change ([2]; Day 28): 14 (36%) n (%) | 1 - minimally improved ([2]; Day 28): 10 (26%) n (%) | 2 - much improved ([2]; Day 28): 7 (18%) n (%) | 3 - very much improved ([2]; Day 28): 3 (8%) n (%) | −1 - minimally worse ([2]; Day 28): 1 (3%) n (%) | −2 - much worse ([2]; Day 28): 1 (3%) n (%) | −3 - very much worse ([2]; Day 28): 1 (3%) n (%) | dose at which developmental toxicity was observed [3, 10]: observed at ≥100 mg/kg/day. | dose at which maternal toxicity was excessive [3, 10]: 1000 mg/kg/day | dose at which maternal toxicity was observed [3, 10]: ≥ 30 mg/kg/day | Doses with developmental toxicity (decreased live fetal body weight) ([3]; rat, in vivo): ≥ 100 mg/kg/day | Doses with maternal toxicity ([3]; rat, in vivo): ≥ 30 mg/kg/day | Developmental toxicity ([4]; 30, 100, or 300 mg/kg/day): No evidence of developmental toxicity | dose at which maternal toxicity was excessive [4, 11]: 1000 mg/kg/day | dose at which maternal toxicity was observed [4, 11]: ≥30 mg/kg/day and was excessive at | Doses with maternal toxicity ([4]; rabbit, in vivo): ≥ 30 mg/kg/day | Slow Wave Activity during the First One-Third of the Sleep Period, Geometric Mean (slow wave activity): 26.36 μV^2/Hz | Slow Wave Activity during the First One-Third of the Sleep Period, Raw Value Mean (slow wave activity): 30.51 μV^2/Hz | IC50 (hERG): 21 µM | IC20 (hERG; human, CHO-K1 cells expressing hERG): 4 µM | Decrease in food consumption [5]: up to 19% | Dose excreted in feces as unchanged drug [6]: Less than 1% | Radioactivity in feces [6]: approximately 5% | Radioactivity recovered in bile [6]: 46% | Radioactivity recovered in urine [6]: 43% | Recovered radioactivity excreted in the first day [6]: > 85% | Recovery of label after 72 hours [6]: ~96% | AUC [7]: 7.57 µM·h | Peak change in QT interval (cardiovascular function; 20 mg/kg oral): -27 ms | Peak change in heart rate (cardiovascular function; 20 mg/kg oral): +28 beats/min | Peak decrease in QT interval (cardiovascular function; 300 mg/kg oral): -14 ms | Peak increase in heart rate (cardiovascular function; 300 mg/kg oral): +47 beats/min | NOEL (cardiovascular function; dog, in vivo): 2 mg/kg | NOAEL ([8]; in vivo): 20 mg/kg | Cmax ([8]; plasma, po, 20 mg/kg): ~30 µM | NOEL for respiratory function (respiratory function): < 30 mg/kg | NOAEL ([9]; in vivo): 30 mg/kg | Cmax ([9]; 300 mg/kg): ~28 µM | Cmax ([9]; 2000 mg/kg): ~34 µM | AUC (in vivo; 10 mg/kg/day): 20.7 µM·h | Tmax (in vivo; 10 mg/kg/day): 3.4 h | AUC (in vivo; 100 mg/kg/day): 94.6 µM·h | AUC (in vivo; 500 mg/kg/day): 219 µM·h | Tmax (in vivo; 500 mg/kg/day): 4.8 h
